Data taken from ChEMBL document CHEMBL2203160, “PPARγ agonist from Chromolaena odorata” (J Nat Prod, 2012).

Experiments:
PC-6 = experiment: Cytotoxicity against human PC6 cells by MTT assay; type: functional, cell-based
[1] = Cytotoxicity against human U251SP cells by MTT assay; type: functional, cell-based

COc1c(O)cc2c(c1OC)C(=O)c1ccc(C)cc1C2=O
IC50 (PC-6): 52.2 µM

COc1cc(O)c(C(=O)/C=C/c2ccc(O)cc2)c(OC)c1OC
IC50 [1]: 92.7 µM
